Measurements: US20210106612A1, “TARGET GENE TRANSCRIPTIONAL REPRESSION INHIBITOR THAT CAN BE DESIGNED IN A SEQUENCE-SPECIFIC MANNER, COMPOSITION CONTAINING SAME, AND USE THEREOF” (National University Corporation Chiba University, priority 2016, published 2021)

Columns and labels:
[1] = tested on: promoter region of the MLH1 gene; experiment: methylation of promoter region of MLH1 gene in RKO cells, pyrosequencing; assay type: cell-based
Procedure: 1.0×10^5 cells of the […] cells were seeded over a 6 cm dish and treated with a medium containing 5.0 μM 5-aza-2'-deoxycytidine (AZA) over 7 days from the next day. The medium was replaced with a fresh medium every 24 hours. The cells were treated with a medium containing 10 nM trichostatin A (TSA) on the 7th day and recovered on the 8th day. […] The cells of the 8th day were cultured under hypoxic conditions of 1% O2 and 5% CO2. The cells were treated with 0.1% DMSO containing 5 μM PIP1 or PIP2, recovered on the 0th day (R0), the 20th day (R20) and the 30th day ([…]), and examined for the degree of methylation in the region from -27 to -1 of the MLH1 gene by pyrosequencing. During the treatment with PIP, the medium containing PIP1 or PIP2 was replaced every 5 days, and the cells were subcultured when becoming confluent.

RKO cells [2] = experiment: genome-wide DNA methylation analysis (Infinium Human Methylation 450 BeadChip) in RKO cells; assay type: cell-based; conditions: for genome-wide methylation level: RKO cells, 0.5 μM AZA, 10 μM Im0 or Im3 under hypoxic conditions, FIG. 8; for genes whose methylation level was reduced by Im0 and Im3 in common, TSS±1 kb region / probes whose methylation level was reduced by Im0 and Im3 in common, TSS±1 kb region / probes whose methylation level was reduced by Im0 and Im3 in common, whole genome: β value <0.65 in Im0-treated and in Im3-treated cells of H75; for genes whose methylation was selectively reduced by this PIP, TSS±1 kb region / probes whose methylation was selectively reduced by this PIP, TSS±1 kb region / probes whose methylation was selectively reduced by this PIP, whole genome: β value <0.65 with this PIP and >0.8 with the other PIP on H75, 10 μM, 75 days, hypoxia after AZA
Procedure: (§1) The large intestine cancer cell line RKO cells were seeded at a density of 1×10^5 cells over a 6 cm dish and incubated for 24 hours. Subsequently, the culture solution was replaced with a culture solution containing 0.5 μM 5-aza-2′-deoxycytidine (AZA). The cultured cells were exposed to AZA over 2.4 hours. The cells were recovered on the 10th day, or cultured under hypoxic conditions as mentioned below.
(§2) In order to culture the cells under hypoxic conditions, the cells were cultured for 8 days under continuous aeration conditions with humidified air containing 94% N2, 5% CO2 and 1% O2 in an incubator equipped with an O2 sensor and MCO-18M regulator (Sanyo Electric Co., Ltd., Osaka, Japan). The CO2 concentration was maintained by the internal CO2 concentration regulation mechanism. Subsequently, the AZA-treated cells were treated with 0.1% DMSO containing 10 μM Im0 or Im3 for 75 days. During this operation, the medium containing PIP was replaced every 5 days. The cells were subcultured at a density of 2×10^5 cells over a 6 cm dish when becoming confluent. The cells were recovered on the 0th day (H0, before hypoxia treatment) and the 75th day (H75).
Genome-wide DNA methylation analysis was conducted as follows: first, 500 ng of genomic DNA obtained from each sample was treated with bisulfite using Zymo EZ DNA Methylation Kit (Zymo Research Corp., Irvine, Calif., USA). Whole genome amplification, labeling, hybridization and scanning were performed according to manufacturers' manuals.
Methylation analysis was conducted using Infinium Human Methylation 450 BeadChip (Illumina, Inc.) for the whole genome or in a ±1 kb region of the transcription start site (TSS) of each gene. Specifically, the ratio of probes for methylated sequences to the total of the probes for methylated sequences and probes for nonmethylated sequences (in the present specification, referred to as a “β value”) was determined. The β value is 0.00 when no methylation is found in all CpG sites, and is 1.00 when all CpG sites are methylated.
First, genes with β value >0.8 in the negative control RKO cells were selected. Genes with β value <0.5 on HO and β value >0.8 in the presence of treatment with 0.1% DMSO on H75 were further selected from the selected genes.

MLH1 gene = experiment: expression of mRNA of the MLH1 gene in RKO cells by RT-PCR; assay type: cell-based
RKO cells [3] = experiment: gene expression analysis by RNA deep sequencing (FPKM) in RKO cells; assay type: cell-based; conditions: 10 μM PIP, hypoxia after AZA, FIG. 8 right graphs
Procedure: as §1, §2
Next, the expression levels of particular genes were analyzed. An RNA library was prepared using TruSeq Stranded mRNA Sample Prep Kit (Illumina, Inc.) according to the manufacturer's manual. Deep sequencing was performed using Illumina HiSeq 1500 or NextSeq 500 platform. FASTQ reads were mapped using TopHat, and transcripts were assembled using Cufflinks. gene expression was expressed as FPKM (fragments per kilobase of exon per million reads mapped). The results were as shown in the right graphs of FIG. 8.

[4] = tested on: FAM-labeled double-stranded oligo DNA of 15 base pairs including a region from −22 to −8 of the MLH1 gene; experiment: gel shift assay of binding to the target sequence; conditions: 1 μM double-stranded oligo DNA, 37° C. for 1 hour, FIG. 2A
Procedure: PIP1 was confirmed by gel shift assay to bind to the target sequence. FAM-labeled double-stranded oligo DNA of 15 base pairs including a region from −22 to −8 of the MLH1 gene (double-stranded oligo DNA obtained by annealing sequences of SEQ ID NOs: 2 and 3) was prepared (lower part of FIG. 2A). 1 μM double-stranded oligo DNA was mixed at an indicated final concentration with PIP1 or PIP2 dissolved in 10 μL of a reaction solution containing 10 mM Tris-HCl (pH 8.0) and 10% DMSO, followed by incubation at 37° C. for 1 hour. The obtained reaction product was electrophoresed using 20% polyacrylamide gel, and double-stranded DNA on the gel was visualized using LAS-3000 (Fujifilm Corp., Japan).

[5] = tested on: region from −27 to −1 of the MLH1 gene; experiment: in vitro methylation of MLH1 plasmid by CpG methyltransferase M.SssI, pyrosequencing; assay type: biochemical; conditions: varying concentrations of PIP1, M.SssI, FIG. 3C
Procedure: A region from −780 to +483 (SEQ ID NO: 1) of MLH1 was amplified from the genomic DNA of the RKO cells by PCR using primers of SEQ ID NOs: 6 and 7 to obtain a DNA fragment, which was then integrated into pGEM-T Easy vector (Promega Corp., Fitchburg, USA) according to the manufacturer's manual (see FIG. 3A). 1 μg of the obtained plasmid was incubated at 25° C. for 12 hours in varying concentrations of PIP1 or 40 μM of PIP2 and 1× NEB buffer solution 2 (New England Biolabs Inc., Ipswich, USA) to bind the pyrrole imidazole polyamide to the DNA. For a negative control, DMSO was added to the plasmid and incubated.
[…] of S-adenosylmethionine (New England Biolabs Inc.) and 4 units of CpG methyltransferase M.SssI (New England Biolabs Inc.) were added to each sample, and 5% DMSO was added thereto to adjust the amount to 20 μL. After incubation at 37° C. for 2 hours, the reaction was terminated by incubation at 65° C. for 20 minutes. The DNA was purified by ethanol precipitation and dissolved in 100 μL of 10 mM Tris-HCl (pH 8.0). Then, the degree of DNA methylation at various sites of the MLH1 gene was tested by pyrosequencing. The primers used were as described in the following table.

Compound | degree of methylation in the promoter region from −27 to −1 of the MLH1 gene after demethylation treatment ([1]; RKO cells, 5.0 μM AZA over 7 days, 10 nM TSA on the 7th day, FIG. 4A) | genome-wide methylation level (RKO cells [2]) | expression of mRNA of the MLH1 gene after demethylation treatment (MLH1 gene; RKO cells, 5.0 μM AZA over 7 days, 10 nM TSA on the 7th day, FIG. 4B) | genes whose methylation level was reduced by Im0 and Im3 in common, TSS±1 kb region (RKO cells [2]) | probes whose methylation level was reduced by Im0 and Im3 in common, TSS±1 kb region (RKO cells [2]) | probes whose methylation level was reduced by Im0 and Im3 in common, whole genome (RKO cells [2]) | genes whose methylation was selectively reduced by this PIP, TSS±1 kb region (RKO cells [2]) | probes whose methylation was selectively reduced by this PIP, TSS±1 kb region (RKO cells [2]) | probes whose methylation was selectively reduced by this PIP, whole genome (RKO cells [2]) | gene expression of NOSTRIN, DSCR9, SLC22A25, OR3A4P and C1WTNF6 (RKO cells [3]) | gene expression of TCP11, LYPDS, STAR, LOC253573 and LOC100507573 (RKO cells [3]) | binding to the target double-stranded DNA (band shift) [4] | degree of DNA methylation in the region from −27 to −1 of the MLH1 gene on R20 and R30 ([1]; AZA or AZA+TSA pretreated RKO cells, hypoxic conditions 1% O2, 5 μM PIP, FIGS. 6A and 6B) | methylation in a −70 region, a −63 region, a +156 region, and a +171 region of the MLH1 gene ([1]; sites distant from the target site, hypoxic conditions, 5 μM PIP, FIG. 6E) | inhibition of DNA methylation in the region from −27 to −1 of the MLH1 gene [5] | expression of mRNA of the MLH1 gene, which is reduced along with methylation (MLH1 gene; AZA+TSA-treated cells, hypoxic conditions, 5 μM PIP, FIGS. 6C and 6D)
Nc1ncn([C@H]2C[C@H](O)[C@@H](CO)O2)c(=O)n1 [AZA, 5-aza-2′-deoxycytidine, reference compound] | reduced | demethylated genome-wide | restored |  |  |  |  |  |  |  |  |  |  |  |  | 
Me-Py-Py-Im-Py-β-Dp [Im3] |  | methylation levels of genes as a whole were drastically reduced |  | 9 genes | 19 probes | 19 probes | 254 genes | 450 probes | 1171 probes | selectively maintained | maintained |  |  |  |  | 
Me-Py-Py-Py-Py-β-Dp [Im0] |  | methylation levels of some genes were drastically reduced |  | 9 genes | 19 probes | 19 probes | 1110 genes | 2135 probes | 6099 probes |  | maintained |  |  |  |  | 
CC(=O)Nc1cc(C(=O)Nc2cn(C)c(C(=O)NCCC(=O)Nc3cn(C)c(C(=O)Nc4cn(C)c(C(O)Nc5c[nH]c(C(=O)NCCCC(=O)Nc6cn(C)c(C(=O)Nc7cc(C(=O)NCCC(=O)Nc8cn(C)c(C(=O)Nc9cc(C(=O)Nc%10cc(C(=O)NCCC(=O)NCCCN(C)C)n(C)c%10)n(C)c9)n8)n(C)c7)n6)c5)n4)n3)n2)n(C)c1 (stereo not drawn) [PIP1, Ac-Py-Im-β-Im-Im-Py-γ-Im-Py-β-Im-Py-Py-β-Dp] |  |  |  |  |  |  |  |  |  |  |  | confirmed to bind to the target double-stranded DNA | an increase in the degree of methylation was suppressed | suppress methylation | inhibited DNA methylation in a concentration-dependent manner | maintained
